Measurements from patent US20260306459A1, “INHIBITORS OF NSUN1- AND NSUN2-MEDIATED ACTIVE STRUCTURES” (THE UNIVERSITY OF CHICAGO, priority 2023, published 2026).
“Also recorded” adds a separate entry of the source.

Columns and labels:
[1] = test system: leukemia and lung cancer cell lines; experiment: Functional (MTT) screening of NSUN1/2-targeting libraries in leukemia and lung cancer cell lines; type: cell-based, human; details: for Efficacy of tumor cell growth inhibition: multiple leukemia lines and/or lung cancer cell lines; for Bioactive positive hit, tumor cell growth inhibition and lineage preference: leukemia and lung cancer cell lines
Method: (§1) FIGS. 11A-11D display scatter plot representations of screening results for AI-designed NSUN1-targeting compound libraries in a venetcoclax-resistant human myeloid leukemia cell line (SC), lung cancer cell line (H82), and venetoclax resistant human […], and a schematic representation of categorization of the results. A human myeloid leukemia cell Line (SC), a lung cancer cell line (H82 or K562) were both incubated at drug concentration 10 μM/μL overnight. MTT assays were performed after 24 hours, and changes were calculated as the percentage of mean absorbance (n=3) versus mean absorbance of drug-free control (n=3). Negative outliers indicated in red ovals. FIG. 11A depicts the results of an NSUN1-targeting drug library, 74 drugs, comparing growth/inhibition in H-82 (Y axis) and SC (X axis) cell lines. FIG. 11B depicts the results of an NSUN2-targeting drug library, 102 drugs, comparing growth/inhibition in H-82 (Y axis) and SC (X axis) cell lines. FIG. 11C depicts the results of an NSUN1-targeting drug library, 74 drugs, comparing growth/inhibition in K562 (Y axis) and SC (X axis) cell lines. FIG. 11D is a schematic representation showing categorization of the results from screens performed as described in FIG. 11, and validation experiments as described in FIG. 12.
(§2) FIGS. 12A-12J display bar graphs displaying the results of validation experiments for small molecule inhibitors of NSUN1/2-ACS interactions as identified herein. Drug validation of select SC, H82, and/or K562 inhibiting compounds in mouse acute myeloid leukemia cell Line (C1498), SC cells, H82 cells, and/or K562 cells. NSUN1-17 and/or venetoclax acted as controls. Inhibition of cell vitality was identified as dose-dependent for certain small molecules, not merely cytotoxic. In brief, stock with concentration 0.4×10^6 test (e.g., SC, H82, K562, or C1498, as labelled) cells/mL, and 10 μM/μL drug was serially diluted into drug-free cell stock to reach concentrations of 1 μM/μL and […] and split into 100 μL volumes in a 96-well plate. MTT assays performed after 24 hour incubation. Percentages calculated as a difference in mean absorbance of each drug triplicate and mean absorbance in drug-free cell triplicate. Red bars represent standard errors. The concentration of drug represented by each column is from left to right as written in the figure keys. FIGS. 12A-12E provide results from independent repeats for different groupings of small molecules tested against C1498 cells. FIGS. 12F-12G provide results from independent repeats for different groupings of small molecules tested against H82 cells. FIGS. […] provide results from independent repeats for different groupings of small molecules tested against SC cells. FIG. 12J provide results from an assay against K562 cells.
The inventors then designed a protocol for functional screening of NSUN1/2-targeting supercomputing/AI-derived compound libraries as schematically presented in FIGS. 5A-5G. Briefly, the library compounds were obtained from various chemical companies/vendors and dissolved in DMSO, and then applied to 96-well plates that contained leukemia and/or other cancer cells that were resistant to venetoclax. Both the routine colorimetric assay (MTT assay) and the newly developed NSUN1/2-targeting fluorescence quenching and release (FQR) assay were performed to select bioactive compounds for further quantitative study to confirm that they targetNSUN1/2 and their associated ACS. As described below, the compound libraries screened through cancer cell proliferation and/or NSUN1/2 localization to the ACS successfully identified numerous promising compounds that can inhibit the leukemia cell growth and appear to target the NSUN1-mediated ACS (see Table 2). This success has proven the feasibility and efficacy of the described supercomputing/AI design and functional screening of the NSUN1/2-targeting drug libraries. In some aspects, screening is conducted using drug-resistant cell lines. […]

SC cells = experiment: MTT growth inhibition in venetoclax-resistant monocytic leukemia cell line SC; type: cell-based, human; details: for Effective cell lines: SC: venetoclax-resistant human monocytic leukemia, wrapped cell
Text: (§3) FIGS. 8A-8B display a schematic of an 5-ethynyl uridine click chemistry (EC)-coupled flow cytometry (EC-FCM) assay (FIG. 8A), while FIG. 8B depicts the results of an EC-FCM assay showing distinct drug-specific signatures/patterns of nascent RNA synthesis inhibition in the venetoclax sensitive leukemia cell line (K1). The MTT assay measures cell viability and proliferation as well as cytotoxicity of compounds by assessing cellular metabolic activity. The associated measurement can be described as cell viability, cell killing, and/or growth inhibition.
as §1, §2
The inventors then designed a protocol for functional screening of NSUN1/2-targeting supercomputing/AI-derived compound libraries as schematically presented in FIGS. 5A-5G. Briefly, the library compounds were obtained from various chemical companies/vendors and dissolved in DMSO, and then applied to 96-well plates that contained leukemia and/or other cancer cells that were resistant to venetoclax. […]

H82 cells = experiment: MTT growth inhibition in venetoclax-resistant lung cancer cell line H82; type: cell-based, human; details: H82, venetoclax-resistant human lung cancer, wrapped cell
Text: as §3, §1
FIGS. 12A-12J display bar graphs displaying the results of validation experiments for small molecule inhibitors of NSUN1/2-ACS interactions as identified herein. Drug validation of select SC, H82, and/or K562 inhibiting compounds in mouse acute myeloid leukemia cell Line (C1498), SC cells, H82 cells, and/or K562 cells. NSUN1-17 and/or venetoclax acted as controls. Inhibition of cell vitality was identified as dose-dependent for certain small molecules, not merely cytotoxic. In brief, stock with concentration 0.4×10^6 test (e.g., SC, H82, K562, or C1498, as labelled) cells/mL, and 10 μM/μL drug was serially diluted into drug-free cell stock to reach concentrations of 1 μM/μL and […] and split into 100 μL volumes in a 96-well plate. MTT assays performed after 24 hour incubation. Percentages calculated as a difference in mean absorbance of each drug triplicate and mean absorbance in drug-free cell triplicate. […]

C1498 cells = experiment: MTT growth inhibition in myeloid leukemia cell line C1498; type: cell-based, mouse; details: C1498, mouse myeloid leukemia, wrapped cell
Text: as §3, §2
The inventors then designed a protocol for functional screening of NSUN1/2-targeting supercomputing/AI-derived compound libraries as schematically presented in FIGS. 5A-5G. Briefly, the library compounds were obtained from various chemical companies/vendors and dissolved in DMSO, and then applied to 96-well plates that contained leukemia and/or other cancer cells that were resistant to venetoclax. Both the routine colorimetric assay (MTT assay) and the newly developed NSUN1/2-targeting fluorescence quenching and release (FQR) assay were performed to select bioactive compounds for further quantitative study to confirm that they targetNSUN1/2 and their associated ACS. As described below, the compound libraries screened through cancer cell proliferation and/or NSUN1/2 localization to the ACS successfully identified numerous promising compounds that can inhibit the leukemia cell growth and appear to target the NSUN1-mediated ACS (see Table 2). This success has proven the feasibility and efficacy of the described supercomputing/AI design and functional screening of the NSUN1/2-targeting drug libraries. In some aspects, screening is conducted using drug-resistant cell lines. In some aspects, screening is conducted using drug-sensitive cell lines. In some aspects, screening is conducted in leukemia cell lines. In some aspects, screening is conducted in other cancer cell lines besides leukemia (e.g., lung cancer cell lines). In some aspects, NSUN1/2-ACS inhibitors identified are verified in additional cell lines and/or animal models (see e.g., Tables 4-6).

[2] = molecular target: NSUN2-mitochondrial RNA polymerase (POLRMT) interaction (Homo sapiens, UniProt Q08J23); experiment: PL-RCA-FCM, NSUN2-POLRMT interaction; type: cell-based
Text: (§4) FIG. 23 provides PL-RCA-FCM results and an associated schematic showing that NSUN2-11 can disrupt the interactions between NSUN2 and mitochondrial RNA polymerase (POLRMT) as well as mitochondrial translation initiation factor 3 (MTIF3). RNA:m5C/NSUN1/2-mediated transcription and translation complexes (RNATTC) mediate multidrug resistance through regulating multi-bioprocesses and multi-organelles' functions in cancer cells.
(§5) The PL-RCA-CM/imaging technique utilized in the inventors previous work (Cheng, J. X. et al., Nature Communications 2018) was suitable to visualize and semi-quantify the NSUN1/2-mediated ACS in cells. However, the previous technique had the disadvantage of having a low sensitivity and low throughput. To overcome this bottleneck, as described herein, the inventors developed NSUN1/2-targeting fluorescence quenching and release (FQR) plate assay (FIG. 6A) and PL-RCA flow cytometry (PL-RCA-FCM) technology (FIG. 6B) for screening of NSUN1/2-targeting drug libraries and quantitatively measuring NSUN1/2-mediated ACS with and without drugs in a lineage-specific and high-throughput manner. The new PL-RCA-FCM detected very strong PL-RCA signals (>2 logs) of the NSUN2-mediated interactions with m5C, RNAPII CTD2-S2P and BRD4, particularly in the venetoclax-resistant leukemia cells (SC) (FIG. 6C), in comparison to the venetoclax-sensitive K1 cells (FIG. 6D).

[3] = molecular target: NSUN2-mitochondrial translation initiation factor 3 (MTIF3) interaction (Homo sapiens, UniProt Q08J23); experiment: PL-RCA-FCM, NSUN2-MTIF3 interaction; type: cell-based
Text: as §4, §5

NSUN1-c-MYC interaction = NSUN1-c-MYC interaction (Homo sapiens, UniProt P46087); experiment: PL-RCA-FCM, NSUN1-c-MYC interaction; type: cell-based
Text: (§6) FIGS. 5A-5G display a pipeline of computational design and functional screening of small-molecule compound libraries as well as exemplary characterization and validation of identified positive hit compounds and their targets. FIGS. 5A-5D display an exemplary experimental procedure, beginning with characterization of NSUN1 and/or NSUN2 putative binding modules for interaction with ACS components (FIGS. 5A-5B), a graphic displaying the design of a small molecule library and testing of the putative small molecule NSUN1/2-ACS inhibitors in cell lines (FIG. 5C), characterization of the NSUN1/2-ACS inhibitors interactions with the ACS machinery (FIG. 5D).
(§7) Black=negative control, blue=positive control, no drug=red.
(§8) The PL-RCA-CM/imaging technique utilized in the inventors previous work (Cheng, J. X. et al., Nature Communications 2018) was suitable to visualize and semi-quantify the NSUN1/2-mediated ACS in cells. […] To overcome this bottleneck, as described herein, the inventors developed NSUN1/2-targeting fluorescence quenching and release (FQR) plate assay (FIG. 6A) and PL-RCA flow cytometry (PL-RCA-FCM) technology (FIG. 6B) for screening of NSUN1/2-targeting drug libraries and quantitatively measuring NSUN1/2-mediated ACS with and without drugs in a lineage-specific and high-throughput manner. […]

[4] = molecular target: T1, NSUN1-eRNAPII interaction (Homo sapiens, UniProt P46087); experiment: PL-RCA-FCM, NSUN1-eRNAPII interaction; type: cell-based
T1 construct: RNAPII
Text: as §6, §7, §8

NSUN2-c-MYC interaction = NSUN2-c-MYC interaction (Homo sapiens, UniProt Q08J23); experiment: PL-RCA-FCM, NSUN2-c-MYC interaction; type: cell-based
Text: as §7, §5

[5] = molecular target: T2, NSUN2-RNA polymerase II (RNAPII) interaction (Homo sapiens, UniProt Q08J23); experiment: PL-RCA-FCM, NSUN2-RNAPII interaction; type: cell-based
T2 construct: RNAPII CTD2-S2P
Text: as §7, §5

NSUN2-mitochondrial RNA polymerase (POLRMT) interaction, sequence (Q08J23 whole entry): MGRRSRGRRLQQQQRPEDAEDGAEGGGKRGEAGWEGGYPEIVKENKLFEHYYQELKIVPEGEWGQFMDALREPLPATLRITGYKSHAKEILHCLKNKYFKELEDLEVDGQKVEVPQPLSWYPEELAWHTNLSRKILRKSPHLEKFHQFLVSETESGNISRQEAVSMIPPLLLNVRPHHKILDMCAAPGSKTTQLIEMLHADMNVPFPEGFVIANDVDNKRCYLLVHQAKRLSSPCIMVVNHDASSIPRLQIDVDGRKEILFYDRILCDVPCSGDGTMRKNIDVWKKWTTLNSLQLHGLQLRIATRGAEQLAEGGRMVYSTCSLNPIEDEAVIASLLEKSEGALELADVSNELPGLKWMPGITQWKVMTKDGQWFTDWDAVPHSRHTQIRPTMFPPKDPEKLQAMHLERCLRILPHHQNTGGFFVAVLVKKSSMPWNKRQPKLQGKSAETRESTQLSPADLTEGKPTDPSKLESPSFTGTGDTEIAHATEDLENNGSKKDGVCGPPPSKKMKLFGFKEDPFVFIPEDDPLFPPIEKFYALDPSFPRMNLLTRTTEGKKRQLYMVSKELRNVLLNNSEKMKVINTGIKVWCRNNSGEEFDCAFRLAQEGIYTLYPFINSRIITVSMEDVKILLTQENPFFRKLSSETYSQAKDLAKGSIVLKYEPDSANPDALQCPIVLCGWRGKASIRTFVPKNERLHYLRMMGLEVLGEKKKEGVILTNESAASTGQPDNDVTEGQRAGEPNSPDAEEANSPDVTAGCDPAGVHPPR
NSUN2-mitochondrial translation initiation factor 3 (MTIF3) interaction, sequence (Q08J23 whole entry): as above
NSUN2-c-MYC interaction, sequence (Q08J23 whole entry): as above
T2 sequence (Q08J23 whole entry): as above
T1 sequence (P46087 whole entry): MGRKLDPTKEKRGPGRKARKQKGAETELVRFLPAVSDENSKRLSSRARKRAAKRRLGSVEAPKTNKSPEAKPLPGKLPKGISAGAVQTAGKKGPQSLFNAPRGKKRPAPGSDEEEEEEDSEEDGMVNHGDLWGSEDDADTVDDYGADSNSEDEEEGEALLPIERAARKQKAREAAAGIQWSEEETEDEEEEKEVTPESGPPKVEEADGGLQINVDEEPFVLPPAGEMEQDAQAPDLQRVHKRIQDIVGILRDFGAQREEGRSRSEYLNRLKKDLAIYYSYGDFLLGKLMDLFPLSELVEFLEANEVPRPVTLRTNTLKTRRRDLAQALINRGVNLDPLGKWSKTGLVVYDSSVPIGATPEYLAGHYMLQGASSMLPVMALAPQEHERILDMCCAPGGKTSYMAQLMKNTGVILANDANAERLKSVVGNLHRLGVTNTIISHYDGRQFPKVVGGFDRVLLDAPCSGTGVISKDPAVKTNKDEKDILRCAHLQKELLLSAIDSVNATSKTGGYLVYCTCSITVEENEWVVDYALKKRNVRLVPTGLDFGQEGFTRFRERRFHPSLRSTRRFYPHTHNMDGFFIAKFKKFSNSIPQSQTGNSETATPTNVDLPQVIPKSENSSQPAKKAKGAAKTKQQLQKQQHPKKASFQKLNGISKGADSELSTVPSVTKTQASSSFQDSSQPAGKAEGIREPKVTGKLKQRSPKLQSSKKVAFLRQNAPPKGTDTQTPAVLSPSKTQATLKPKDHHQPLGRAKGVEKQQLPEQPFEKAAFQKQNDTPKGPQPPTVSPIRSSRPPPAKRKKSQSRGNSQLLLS
NSUN1-c-MYC interaction, sequence (P46087 whole entry): as above

| Structure (SMILES) | Effective cell lines: C1498 (C1498 cells) | Bioactive positive hit, tumor cell growth inhibition and lineage preference [1] | other results |
| --- | --- | --- | --- |
| Cc1[nH]nc2ccc(-c3cncc(OCC(N)Cc4ccccc4)c3)cc12 (stereo not shown) [NSUN1-73] |  |  | Efficacy of tumor cell growth inhibition [1]: high-efficacy of tumor cell growth inhibition |
| NC1(Cc2ccc(Cl)cc2)CCN(c2ncnc3[nH]ccc23)CC1 [NSUN1-19] | H82 > SC & | inhibits tumor cell growth in a lung cancer preferential manner | Effective cell lines: SC (SC cells): H82 > SC &; Effective cell lines: H82 (H82 cells): H82 > SC & |
| O=C(Nc1ccc(CN2CCCCC2)cc1)c1cccc(COc2ccc(Br)cc2)c1 [NSUN2-37] | H82 & SC > | inhibits tumor cell growth in a non-lineage specific manner | Effective cell lines: SC (SC cells): H82 & SC >; Effective cell lines: H82 (H82 cells): H82 & SC > |
| C=CC(=O)Nc1cccc(-c2cccc3cnc(Nc4ccc(N5CCN(CCO)CC5)c(F)c4F)nc23)c1 [NSUN1-14] |  |  | Efficacy of tumor cell growth inhibition [1]: high-efficacy of tumor cell growth inhibition |
| Nc1nc(Cn2c(=O)oc3ccccc32)nc(Nc2ccccc2)n1 [NSUN1-22] | C1498 (weakly) | inhibits tumor cell growth in a lung cancer preferential manner |  |
| NC1(C(=O)NC(CCO)c2ccc(Cl)cc2)CCN(c2ncnc3[nH]ccc23)CC1 (stereo not shown) [NSUN1-9] | SC & C1498 > | inhibits tumor cell growth in a leukemia preferential manner | Effective cell lines: SC (SC cells): SC & C1498 >; Effective cell lines: H82 (H82 cells): SC & C1498 > |
| O=C(Nc1cccc(-c2nnc3n2CCCC3)c1)c1cc(-c2ccccc2)n[nH]1 [NSUN1-74] | C1498 (weakly) | inhibits tumor cell growth in a non-lineage specific manner |  |
| Nc1ncccc1-c1cc(Cc2ccc(COc3ccccn3)cc2)no1 [NSUN1-11] |  | inhibits tumor cell growth in a non-lineage specific manner | Inhibition of growth of venetoclax-resistant leukemia (SC) cells (SC cells): inhibition of the growth of venetoclax-resistant SC cells; also recorded: inhibit drug (venetoclax)-resistant leukemia cells |
| Oc1nc(Nc2ccc(Cl)cc2)nc2nccc(-c3ccncc3)c12 [NSUN1-67] |  | inhibits tumor cell growth in a non-lineage specific manner |  |
| O=c1ccc2ccc(OCN3CCN(c4cccc5sccc45)CC3)cc2[nH]1 [NSUN2-35, reference compound] |  | inhibits tumor cell growth in a lung cancer preferential manner |  |
| CC(C)Cc1nc(NC(=O)c2cc(-c3ccc4c(c3)CCO4)n[nH]2)n[nH]1 [NSUN1-17.16] |  | inhibits tumor cell growth in a non-lineage specific manner |  |
| COc1ccc2c(c1)CCc1c(C(=O)NCCc3nc4cc(C)ccc4[nH]3)n[nH]c1-2 [NSUN2-11] |  | inhibits tumor cell growth in a non-lineage specific manner | Effect on NSUN2-POLRMT interaction [2]: can disrupt; Effect on NSUN2-MTIF3 interaction [3]: can disrupt; Effect on NSUN1 interaction with c-MYC (NSUN1-c-MYC interaction): can disrupt; Effect on NSUN1 interaction with eRNAPII/RNAPII [4]: can disrupt; Effect on NSUN2-mediated interaction with c-MYC (NSUN2-c-MYC interaction): can disrupt; Effect on NSUN2-mediated interaction with RNA polymerase II [5]: can disrupt |
| CC(C)C[C@H](NC(=O)[C@@H](O)[C@H](N)Cc1ccccc1)C(=O)O [NSUN1-10, Bestatin or Ubenimex, reference compound] |  | inhibits tumor cell growth in a leukemia preferential manner |  |
